Measured values taken from patent publication US20230357179A1, “RAF KINASE INHIBITORS AND METHODS OF USE THEREOF” (Deciphera Pharmaceuticals, LLC, priority 2021, published 2023).

How the values were obtained:
[1] = target: T1, B-Raf kinase (Homo sapiens, UniProt P15056); assay: Biochemical assay for B-Raf.1 (coupled pyruvate kinase/lactate dehydrogenase); details: read-out: BRAF.1 IC50
T1 construct: GST (N); purchased Sigma
Procedure, shortened: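 Reaction rates over the 4–5 h window of a continuous 6 h, 30 °C read were converted to percent inhibition and fitted for IC50. B-Raf (0.13 nM) phosphorylated 30.1 nM MEK with 1 mM ATP; ADP coupled via PK/LDH to NADH loss at 340 nm, 1% DMSO final.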

[2] = test system: WM3928 cells; assay: WM3928 cell proliferation assay (1), resazurin, 96-well; type: cell-based; details: inhibition of cell proliferation
Procedure, shortened: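 IC50 was derived from resazurin fluorescence (ex 540, em 600 nm) after a 6–7 h dye incubation. Before that, cells had 67–72 h of compound exposure at 37 °C, 5% CO2.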

[3] = target: T2, C-Raf kinase (Homo sapiens, UniProt P04049, Y340D/Y341D); assay: Biochemical assay for C-Raf.2 (coupled pyruvate kinase/lactate dehydrogenase); details: read-out: CRAF.2 IC50
T2 construct: Y340D,; GST (N); purchased Sigma
Description: Biochemical Assay for C-Raf.2
Activity of C-Raf kinase (SEQ. ID NO: 3) was determined spectroscopically using a coupled pyruvate kinase/lactate dehydrogenase assay that continuously monitors the ATP hydrolysis-dependent oxidation of NADH (e.g., Schindler et al., Science, 2000, 289, 1938-1942). Assays were conducted in 384-well plates (25 μL final volume) using 3.84 nM C-Raf (Eurofins), 1.5 units pyruvate kinase, 2.1 units lactate dehydrogenase, 1 mM phosphoenol pyruvate, 0.7 mM NADH, 50 nM MEK (SignalChem), and 1 mM ATP in assay buffer (100 mM Tris, pH 7.5, 15 mM MgCl2, 0.5 mM DTT, 0.1% octyl-glucoside, 0.002% (w/v) BSA, and 0.002% Triton X-100). Inhibition of C-Raf was measured by adding serial diluted test compound (final assay concentration of 1% DMSO). A decrease in absorption at 340 nm was monitored hourly for 4 h at 30° C. on a multi-mode microplate reader (BioTek). The reaction rate was calculated using the 2 to 3 h time frame. The reaction rate at each concentration of compound was converted to percent inhibition using controls (i.e., reaction with no test compound and reaction with a known inhibitor) and IC50 values were calculated by fitting a four-parameter sigmoidal curve to the data using Prism (GraphPad software).

[4] = test system: WM3928 cells; assay: WM3928 cell proliferation assay (2), resazurin, 384-well; type: cell-based; details: inhibition of cell proliferation, 67-72 hours
Description: WM3928 Cell Proliferation Assay (2)
WM3928 cells (#WM3928-01-0001) are obtained from Rockland Immunochemicals Inc (Gilbertsville, PA). Briefly, cells were grown in MCDB 153 medium (Sigma, #M7403, St. Louis, MO) supplemented with 20% Leibovitz's L-15 (ThermoFisher #11415-064, Waltham, MA), 2% heat inactivated fetal bovine serum (ThermoFisher, #A3840001, Waltham, MA), 5 μg/mL Insulin (Bovine Pancreas) (Sigma, #I0516, St. Louis, MO), 1.68 mM Calcium Chloride (Sigma, #C-34006, St. Louis, MO) and 1% Penicillin/Streptomycin/L-Glutamine (ThermoFisher #10378016, Waltham, MA) at 37° C., 5% CO2, and 95% humidity. Cells are expanded until reaching 70-95% confluency at which point they are sub-cultured or harvested for assay use. Using the Beckman Coulter Echo 650, a serial dilution of test compound is dispensed into a 384-well black clear bottom plate in triplicate. Seven hundred fifty cells are added per well in 50 μL complete growth medium in the 384-well plate. Plates are incubated for 67-72 hours at 37° C., 5% CO2, and 95% humidity. At the end of the incubation, 10 μL of a 440 μM solution of resazurin (Sigma, #199303, St. Louis, MO) in PBS is added to each well of the plate and plates are incubated for an additional 3-6 hours at 37° C., 5% CO2, and 95% humidity. Plates are read on a Synergy2 or equivalent reader (Biotek, Winooski VT) using an excitation of 540 nm and an emission of 600 nm. Data is analyzed using Prism software (GraphPad, San Diego, CA) to calculate IC50 values.

T1 sequence (P15056 416-766): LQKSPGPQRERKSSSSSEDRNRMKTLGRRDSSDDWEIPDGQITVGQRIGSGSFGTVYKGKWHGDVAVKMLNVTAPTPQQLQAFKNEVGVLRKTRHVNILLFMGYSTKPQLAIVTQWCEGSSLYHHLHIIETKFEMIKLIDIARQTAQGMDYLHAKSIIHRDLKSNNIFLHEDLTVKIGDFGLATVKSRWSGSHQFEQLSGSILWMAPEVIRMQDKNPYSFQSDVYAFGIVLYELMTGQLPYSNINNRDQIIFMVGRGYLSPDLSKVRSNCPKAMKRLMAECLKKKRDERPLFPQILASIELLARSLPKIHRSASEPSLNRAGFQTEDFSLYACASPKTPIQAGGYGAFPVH
T2 sequence (P04049 307-648 Y340D/Y341D): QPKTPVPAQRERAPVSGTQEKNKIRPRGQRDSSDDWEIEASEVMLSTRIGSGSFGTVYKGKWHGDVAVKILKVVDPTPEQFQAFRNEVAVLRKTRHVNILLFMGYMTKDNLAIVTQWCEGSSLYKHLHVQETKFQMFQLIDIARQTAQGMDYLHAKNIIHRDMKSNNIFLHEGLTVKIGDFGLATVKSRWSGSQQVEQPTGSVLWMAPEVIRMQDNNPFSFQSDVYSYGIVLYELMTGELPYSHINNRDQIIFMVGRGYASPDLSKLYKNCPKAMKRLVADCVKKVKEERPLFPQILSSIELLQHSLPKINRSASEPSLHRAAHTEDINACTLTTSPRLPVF

Row | IC50 [1] | IC50 [3] | Compound | IC50 [2] | IC50 [4]
1 | ≤ 100 nM | – | Cc1cc(F)c(NC(=O)NCCC2(C)CC2)cc1-c1cc(OCCO)nc(-c2ccnc3[nH]ncc23)c1 [Example 87] | ≤ 100 nM | –
2 | 500 to 1000 nM | – | Cc1cc(F)c(NC(=O)N[C@@H]2CC[C@H](F)C2)cc1-c1cc(OCCO)nc(-c2ccnc3[nH]ncc23)c1 [Example 88] | 1000 to 10000 nM | –
3 | ≤ 100 nM | – | COC(C)(C)CCNC(=O)Nc1cc(-c2cc(OCCO)nc(-c3ccnc4[nH]ccc34)c2)c(C)cc1F [Example 90] | 500 to 1000 nM | –
4 | – | ≤ 100 nM | COC(=O)Nc1cc(-c2cncc(-c3cc(NC(=O)N4CC[C@H](C(F)(F)F)C4)ccc3C)c2)ncn1 [Example 224] | 100 to 500 nM | –
5 | – | 100 to 500 nM | CNC(=O)c1cc(-c2cncc(-c3cc(NC(=O)N4CC[C@H](C(C)C)C4)ccc3C)c2)ncn1 [Example 226] | – | 100 to 500 nM
6 | – | ≤ 100 nM | Cc1ccc(NC(=O)N2CC[C@H](C)C2)cc1-c1cncc(-c2cc(NC(=O)C3CC3)ncn2)c1 [Example 227] | – | 100 to 500 nM

More lines, now with the values behind:

Row | Compound | IC50 [1] | IC50 [3] | IC50 [2] | IC50 [4]
7 | COC(=O)Nc1cc(-c2cccc(-c3cc(NC(=O)NCCC(C)(C)OC)c(F)cc3C)c2)ccn1 [Example 85] | ≤ 100 nM | – | 100 to 500 nM | –
8 | Cc1cc(F)c(NC(=O)NCC[C@@H]2CCO2)cc1-c1cc(OCCO)nc(-c2ccnc3[nH]ncc23)c1 [Example 89] | > 1000 nM | – | 1000 to 10000 nM | –
9 | COC(C)(C)CCNC(=O)Nc1cc(-c2cc(OCCO)nc(-c3ccnc4[nH]ncc34)c2)c(C)cc1F [Example 91] | ≤ 100 nM | – | 100 to 500 nM | –
10 | Cc1cc(F)c(NC(=O)N2CCC(C)(C#N)CC2)cc1-c1cc(OCCO)nc(-c2ccnc3[nH]ncc23)c1 [Example 92] | 500 to 1000 nM | – | 1000 to 10000 nM | –
11 | CNC(=O)c1cc(-c2cc(-c3cc(NC(=O)N4CC[C@H](C(F)(F)F)C4)ccc3C)ccn2)ccn1 [Example 215] | – | ≤ 100 nM | 500 to 1000 nM | –
12 | CNC(=O)c1cc(-c2cncc(-c3cc(NC(=O)N4CC[C@H](C(F)(F)F)C4)ccc3C)c2)ncn1 [Example 220] | – | 100 to 500 nM | – | 500 to 1000 nM
13 | CNC(=O)c1cc(-c2cc(-c3cc(NC(=O)N4CC[C@H](C(C)C)C4)ccc3C)ccn2)ccn1 [Example 225] | – | 100 to 500 nM | – | 100 to 500 nM
14 | CNC(=O)c1cc(-c2cncc(-c3cc(NC(=O)N4CC[C@H](C(F)(F)F)C4)ccc3C)c2)ccn1 [Example 228] | – | 100 to 500 nM | – | 100 to 500 nM
15 | CNC(=O)c1cc(-c2cncc(-c3cc(NC(=O)N4CC[C@H](C(C)C)C4)ccc3C)c2)ccn1 [Example 229] | – | ≤ 100 nM | – | 100 to 500 nM
